Source: patent US20100190797A1, “C[…] OF ZOPICLONE, PROCESSES FOR THEIR PREPARATION AND THEIR PHARMACEUTICAL COMPOSITIONS” (CIPLA LTD., priority 2007, published 2010)

Legend:
[1] = background statement; Form A gets converted into dihydrate Form B; cited from earlier work
[2] = Stability of crystalline polymorphic forms of Zopiclone (conversion to hydrate form); conditions: conversion to more stable hydrate form of Zopiclone
[3] = Hygroscopicity on exposure to air; format: physicochemical; conditions: does not capture moisture even on exposure to air

| SMILES | stability of the known crystalline form [1] | thermodynamic stability of the crystalline form [2] | hygroscopicity [3] |
| --- | --- | --- | --- |
| CN1CCN(C(=O)OC2c3nccnc3C(=O)N2c2ccc(Cl)cn2)CC1 (centres unmarked) [Form B, Zopiclone] | thermodynamically stable |  |  |
| CN1CCN(C(=O)OC2c3nccnc3C(=O)N2c2ccc(Cl)cn2)CC1 (centres unmarked) [Form C, Zopiclone] |  | thermodynamically unstable |  |
| CN1CCN(C(=O)OC2c3nccnc3C(=O)N2c2ccc(Cl)cn2)CC1 (centres unmarked) [Zopiclone Form A, Zopiclone] | unstable |  |  |
| CN1CCN(C(=O)OC2c3nccnc3C(=O)N2c2ccc(Cl)cn2)CC1 (centres unmarked) [Zopiclone Form D, Zopiclone] |  | stable | non-hygroscopic |
